In patent publication US9856304B2, “Peptide and application thereof” (Saitama Medical University, priority 2013, dated 2018):

What was measured:
Assay type in all cases: cell-based
[1] = test system: MIN6 cells (pancreatic β cell line); assay: EdU cell proliferation assay, growth promotion of pancreatic β cells (3), versus Peptides A, B, C; conditions: betagenin 1 nM compared with Peptides A, C at 3 nM or 5 nM, FIG. 5
Procedure: MIN6 cells provided by Dr. Miyazaki at Osaka University were used as a pancreatic β cell line. MIN6 cells were maintained in a DMEM culture medium with added 15% (v/v) of FBS.
A DMSO solution was prepared so that the concentration of chemically synthesized betagenin was 97% of purity, as a pancreatic hormone-producing cell growth-promoting agent.
Further, for comparison, Peptides A, B, C consisting of the amino acid sequences set forth in SEQ ID Nos: 4 to 6, respectively, were prepared by chemical synthesis.
First, MIN6 cells were plated on a collagen-coated 8-well slide chamber (BD Falcon, Product Number 354630) at a cell density of 1×10^4 cells/well for confirming the growth promotion of pancreas β cells. After 24 hours, the culture medium was replaced with a DMEM culture medium with added 0.5% (v/v) of FBS, and then serum starvation was performed for 72 hours. Note that the culture medium was replaced with a fresh culture medium 48 hours after the start of serum starvation. […]
The incorporated EdU was visualized as red fluorescence using Alexa Flour™ 594, and observed with a fluorescence microscope (Carl Zeiss). […] Note that a red fluorescence part representing a region where EdU was taken up will be confirmed as a dark black part due to the operations of black and white processing and black and white inversion.

[2] = test system: human iPS cells (200-9 cells, TIG3/KOSM cells, 253G1 cells); assay: Differentiation induction of human iPS cells into pancreatic hormone-producing cells (1), immunostaining; conditions: 3 nM betagenin in step (D2), vs DMSO control, FIG. 3
Text: (§1) As human iPS cells, used were 253G1 cells purchased from the cell bank at RIKEN, TIG3/KOSM cells provided by Dr. Mitani at Saitama Medical University, 200-9 cells, a clone in which a reporter gene is introduced into TIG3/KOSM cells. TIG3/KOSM cells were established at The National Institute of Advanced Industrial Science and Technology by introducing 4 factors (the OCT gene, the KLF gene, the SOX gene, the MYC gene) into TIG-3 cells using Sendai virus (Nishimura, K. et al., J. Biol. Chem., 286, pp. 4760-4771 (2011)).
(§2) These cells were cultured/maintained in an ES cell culture medium (DMEM/ham F12, 20% KSR, nonessential amino acid, 2 mM L-glutamine, 0.1 mM 2-mercaptoethanol, 5.2 mM NaOH) with added 4 ng/mL FGF-2 (Global Stem) and penicillin/streptomycin (Nacalai Tesque, Inc.) along with SNL76/7 cells (DS Pharma Biomedical) treated with mitomycin-C. CTK (0.25% trypsin, 1 mg/mL collagenase IV, 20% KSR, 1 mM CaCl2 in PBS) was used for cell detachment, and diluted at a ratio of 1:3 to 1:4 to perform passage culture.
Cells were detached with trypsin-EDTA 3 days before the start of differentiation induction, and plated at a cell density of 6.3×10^4 cells/cm2, and cultured for 1 day in an ES cell culture medium with added 10 μM Y-27632 (Wako), 4 ng/mL FGF-2 and penicillin/streptomycin along with STO cells treated with mitomycin-C. Subsequently, they were further cultured for 2 days in an ES cell culture medium with added 4 ng/mL FGF-2 and penicillin/streptomycin.
On the first day of the start of differentiation induction, the culture medium was replaced with a RPMI1640 culture medium (Nacalai Tesque, Inc.) with added 2% (v/v) FBS, 100 ng/mL activin A (SBI) and 3 μM CHIR99021 (Axon Medchem), and cultured for 1 day (Step (A2)).
Subsequently, the culture medium was replaced with a RPMI1640 culture medium with added 2% (v/v) FBS and 100 ng/mL activin A, and cultured for 2 days (Step (B2)). […]
Then, the proportion (%) of C-peptide positive cells or insulin positive cells was determined using an image analyzer CellInsight (Thermo Fisher Scientific).

[3] = test system: human iPS cells (253G1 cells); assay: Differentiation induction of human iPS cells into pancreatic hormone-producing cells (1), quantitative RT-PCR; conditions: 3 nM betagenin in step (D2), 11 days, vs DMSO control, Day 10 cells taken as 1, FIG. 2
Text: as §1
as §2, with “CTK (0.25% trypsin, 1 mg/mL collagenase IV, 20% KSR, 1 mM CaCl2 in PBS) was used for cell detachment, and diluted at a ratio of 1:3 to 1:4 to perform passage culture.” left out
The gene expression of insulin was confirmed by quantitative RT-PCR for the cells (n=2 for each of the betagenin addition group and the control group) obtained from 253G1 cells via the above steps (A2) to (D2). Specifically, total RNA was first extracted from the cells using a SV Total RNA Isolation System (Promega), and reverse transcription reactions were performed with BioScript™ transcriptase (Bioline), and then quantitative PCR analysis was performed using SYBR™ Green PCR Master Mix (Applied Biosystems). […]

With “betagenin: chemically synthesized peptide of SEQ ID NO: 1, fragment of human TM4SF20 from Position 170 to Position 229 (WRASSFHFDSEENKHRLIHFSVFLGLLLVGILEVLFGLSQIVIGFLGCLCGVSKRRSQIV; Peptide Sequence betagenin; listed as Homo sapiens)” the “EdU uptake in fluorescence microscope images (dark black parts)” value [1] was “significantly darker black parts”, the “proportion of C-peptide positive cells or insulin positive cells” value (“proportion” for short) ([2]; 200-9 cells) was “increased” and the “proportion” value ([2]; 253G1 cells) was “increased”. The “proportion” value ([2]; TIG3/KOSM cells) was “increased” and the “amount of insulin expression (relative)” value [3] was “increased”.
